A value given as a limit tells only on which side of the number the result lay.

Series [1] deals with Rat adventitial fibroblasts. Description: Proliferation of adventitial fibroblasts. The class given is cell-based. The protocol:
Rat adventitial fibroblasts were cultured as described in Grainger et al., Biochem. J., 283: 403-408, 1992. Briefly, the aortae were treated with collagenase (3 mg/ml) for 30 minutes at 37°C. The tunica adventitia was stripped away from the media. The adventitia was dispersed for 2 hours in elastase (1 mg/ml) and collagenase (3 mg/ml) dissolved in medium M199 (available from ICN/Flow). The cells were then spun out (900 x g, 3 minutes), resuspended in DMEM + 10% FCS and plated out at 8 x 10^4 cells/cm^2 on tissue culture plastic. When the cells reached confluence (after about 10 days), they were subcultured as described for vascular smooth muscle cells. Adventitial fibroblasts were subcultured every 3 days at 1:3 dilution and used between passages 3 and 9.
Cells were prepared for counting by hemocytometer from triplicate culture dishes as described in Grainger et al., Biochem. J., 277:145-151, 1991. Cells were also counted by direct microscopic observation of gridded culture dishes. The grids were scored into the plastic on the inner surface, so that the cells could not migrate into or out of the area being counted during the experiment. Cells in each of four squares in two separate wells were counted at each time point. All cell counting experiments were repeated on at least three separate cultures.

The test system of series [2] is TGF-beta. Description: TGF-beta activity in medium conditioned on rat vascular smooth muscle cells (MvLu cell assay). It is filed as cell-based. The settings on record: cells treated for 96 hours in 10% FCS. The protocol:
Assays for TGF-Beta. The TGF-beta activity present in medium conditioned on various cells was determined by DNA synthesis assay on mink lung […] (MvLu) cells; a modification of the assay described in Danielpour et al., J. Cell. Physiol., 138: 79-83, 1989. MvLu cells were subcultured at 1:5 dilution in DMEM + 10% FCS. After 24 hours, the medium was replaced with the conditioned medium to be tested in the absence or presence of the neutralizing antiserum to TGF-beta at 10 micrograms/ml. DNA synthesis during a 1 hour pulse of [^3H]-thymidine (5 microcuries/ml) was determined 23 hours after addition of the test medium. TGF-beta activity was calculated as the proportion of the inhibition of DNA synthesis which was reversed in the presence of neutralizing antibody, using a standard curve to convert the inhibition values into quantities of TGF-beta. The TGF-beta1 standards and conditioned media both contained 10% FCS in DMEM.

The subject of series [3] is TGF-beta. Description: Sandwich ELISA for total latent plus active TGF-beta, rat vascular smooth muscle cell conditioned medium. It is filed as cell-based. The protocol:
The total latent and active TGF-beta present was determined by a sandwich ELISA. Maxisorb 96-well ELISA plates (available from Gibco) were coated with neutralizing antiserum against TGF-beta (BDA19; available from R & D Systems) at 2 micrograms/cm^2 in phosphate buffered saline (PBS) overnight at room temperature. The plates were washed between each step with tris-buffered saline containing 0.1% Triton X-100 (available from Sigma Chemical Company). The plates were incubated with samples for 2 hours, with a second antibody to TGF-beta (BDA5; available from R & D Systems) at 0.1 micrograms/ml for 2 hours, anti-rabbit IgG peroxidase conjugated to antibody (available from Sigma Chemical Co.), made up according to manufacturer's instructions, for 15 minutes. Absorbances at 492 nm were converted into quantities of TGF-beta protein using a standard curve. Both conditioned media and standards were assayed in the presence of 10% FCS in DMEM. This assay was linear for TGF-beta concentrations in the range from 0.1 ng/ml to 20 ng/ml in the presence of 10% FCS in DMEM.
For orientation: ELISA stands for enzyme-linked immunosorbent assay.

Series [4] has as its system Vascular smooth muscle cells (BO54). Description: Scratch-migration assay with morphological toxicity grading. It is filed as cell-based, baboon. Also noted: key: - = no migration; +1 = minimal; +2 = mild; +3 = moderate; +4 = marked (maximum density; limit of cell contact inhibition) migration. The protocol: Scratch assays to determine the extent of smooth muscle cell migration inhibition by cytochalasin B were performed in accordance with the following protocol:
Vascular smooth muscle cells (BO54) were derived from explants of baboon aortic smooth muscle, as described in Example 1. The cells were grown in flat bottom, six well tissue culture plates, which hold about 5 ml of medium. The vascular smooth muscle cells were plated at 200,000 cells/well and placed at 37°C in a humidified 5% CO2 incubator for 18 hours. The wells were then scratched with a sterile portion of a single edge razor blade that was held by clamp or pliers and was brought aseptically into contact with the bottom of the well at a 90° angle. The cells from a small area along the scratch were removed by a sterile cotton tipped applicator while the blade was in contact with the bottom of the well. After incubation, the presence of cells in the "scratched" area is indicative of cell migration across the scratch line.
Briefly, a stock solution of cytochalasin B (Sigma Chemical Co.) in dimethyl sulfoxide (DMSO) at 1 mg/ml was prepared. Test dilutions of cytochalasin B or control medium were added. Each experiment included two sets of plates: • A set: Test agent exposure for 1, 3, 6, 8 and 10 days only; and • B set: Test agent exposure for 1, 3, 6, 8 and 10 days, followed by a seven day recovery time with control medium. Both sets of plates were fixed (10% formalin in PBS) and stained (0.02% crystal violet) at the end of the timed exposures. Test concentrations for cytochalasin B were 1, 0.1 and 0.01 µg/ml, and a negative medium control was included. Fresh medium and drug were supplied 3 times per week.
In this Table, "M" indicates Migration Grade, wherein - = no migration; +1 = minimal; +2 = mild; +3 = moderate; and +4 = marked (maximum density; limit of cell contact inhibition) migration of vascular smooth muscle cells into the cleared area adjacent to the scratch. In this Table, "T" denotes a morphological Toxicity Grade, wherein - = no toxicity; +1 = minimal; +2 = mild; +3 = moderate; and +4 = marked toxicity. The migration results are expressed as "Grade in the Cleared Area of the Well / Grade in an Undisturbed Region of the Well." The toxicity values represent a grade for all cells in each well.

For the compound `CC/C(=C(\c1ccccc1)c1ccc(OCCN(C)C)cc1)c1ccccc1` [tamoxifen, trans-2-[4-(1,2-diphenyl-1-butenyl)phenoxy]-N,N-dimethylethylamine], the “rate of proliferation of subcultured adventitial fibroblasts” value in series [1] (concentrations of up to 50 micromolar) is “did not reduce the rate of proliferation”. The “ED50 lower for vascular smooth muscle cells than for adventitial fibroblasts” value in series [1] (selectivity, vascular smooth muscle cells vs adventitial fibroblasts) was “at least 10 fold”. Besides, the “increase of TGF-beta activity in the medium” value in the series on TGF-beta [2] is greater than 50 fold. Further, the “proportion of the TGF-beta present in active form” value with TGF-beta [3] (50 micromolar, 96 hours, vehicle < 5%) is listed as “approximately 35%”. Also, in the series on TGF-beta [3] (Rattus norvegicus, 96 h, read-out: increase of total TGF-beta protein present), the fold induction at 50 µM is roughly 4.

As to cytochalasin B, the “morphological Toxicity Grade” value in series [4] (7-day Recovery Post Exposure, 1.0 µg/mL, Day 1) is “+2”; in series [4] (7-day Recovery Post Exposure, 1.0 µg/mL, Day 3), “+1”; in series [4] (7-day Recovery Post Exposure, 1.0 µg/mL, Day 6), “+3”; in series [4] (7-day Recovery Post Exposure, 1.0 µg/mL, Day 8), “+3”; in series [4] (7-day Recovery Post Exposure, 1.0 µg/mL, Day 10), “+3”; in series [4] (Continuous Exposure, 0.1 µg/mL, Day 3) it was “+1”. For the same compound, the “morphological Toxicity Grade” value is listed as “+1” in series [4] (Continuous Exposure, 0.1 µg/mL, Day 6); “+1” in series [4] (Continuous Exposure, 0.1 µg/mL, Day 8); “+1” in series [4] (Continuous Exposure, 0.1 µg/mL, Day 10); “+3” in series [4] (Continuous Exposure, 1.0 µg/mL, Day 1); “+3” in series [4] (Continuous Exposure, 1.0 µg/mL, Day 3).
